Here are results for 31 compounds from patent US8518952B2, “6 substituted 2-heterocyclylamino pyrazine compounds as CHK-1 inhibitors” (Pfizer Inc., priority 2008, dated 2013).

Read-outs that look alike come from different tables or passages of the source.

The subject of one experiment is HeLa cells. The experiment can be described thus: Histone H3 (Ser10) phosphorylation ELISA, abrogation of camptothecin-induced G2 arrest (CHK-1 cellular assay). Type of experiment: cell-based. An outline of the steps:
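HeLa cells, or MiaPaCa-2 where marked, received camptothecin for 8 h, then compound with nocodazole for 16 h. Ser10-phosphorylated histone H3 in lysates was measured by ELISA with a biotinylated antibody, streptavidin-HRP and TMB. EC50 came from four-parameter sigmoid fits.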
For orientation: In an ELISA, binding on a coated surface is turned into a signal by an enzyme label.

The next experiment concerns the target T1, CHK1 (kinase domain) (Homo sapiens, UniProt O14757).
T1 construct: a solution containing 1 nM of CHK1 (kinase domain)
T1 sequence (O14757 9-265 limits assumed): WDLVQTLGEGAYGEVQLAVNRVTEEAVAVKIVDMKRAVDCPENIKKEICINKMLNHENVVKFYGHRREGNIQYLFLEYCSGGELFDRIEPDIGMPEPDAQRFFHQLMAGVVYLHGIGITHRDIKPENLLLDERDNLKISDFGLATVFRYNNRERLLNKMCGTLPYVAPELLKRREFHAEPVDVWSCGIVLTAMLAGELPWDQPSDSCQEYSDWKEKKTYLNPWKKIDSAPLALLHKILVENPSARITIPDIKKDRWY
The experiment can be described thus: CHK1 Ki determination, spectrophotometric coupled (pyruvate kinase/lactate dehydrogenase) assay. The format is biochemical. Particulars: CHK-1 kinase domain; for Ki: 150 uM ATP, 125 uM Syntide 2; for percent inhibition (where no Ki data is available): inhibitor concentration not given. An outline of the steps: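 Ki values, or % inhibition where no Ki was obtained, come from a tight-binding fit that uses active enzyme concentration and the ATP Km. Rates were followed as NADH loss at 340 nm, with ADP production coupled via pyruvate kinase and lactate dehydrogenase. Reactions with ATP (150 uM) and Syntide 2 (125 uM) were started after the CHK1 kinase domain had stood with inhibitor for 15 min.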

The mark [1] stands for this setting: Homo sapiens, HeLa, HeLa cells, camptothecin 8 hrs, then compound with nocodozole 16 hours, read-out: EC50.
Where [2] appears, read: HeLa cells, camptothecin 8 hrs, then compound with nocodozole 16 hours, read-out: EC50.

Usually EC50 stands for the concentration that produces a half-maximal response. In general, Ki refers to the equilibrium dissociation constant of an inhibitor or competing ligand from its target. Low readings indicate higher affinity, high ones lower affinity. Turning to `Fc1ccc2ncc(-c3cncc(N[C@@H]4C[C@@H]5CN[C@H]4C5)n3)n2c1` [Example 126, (1S,4R,6R)-N-[6-(6-fluoroimidazo[1,2-a]pyridin-3-yl)pyrazin-2-yl]-2-azabicyclo[2.2.1]heptan-6-amine], in the experiment with HeLa cells (setting [1]), the EC50 came to 140 nM. Besides, at CHK1 (kinase domain), the Ki is 5.88 nM.

Consider `Cc1cn2c(-c3cncc(N[C@H]4CCCN[C@@H]4C)n3)cnc2s1` [Example 134, 6-(2-methylimidazo[2,1-b][1,3]thiazol-5-yl)-N-[(2R,3S)-2-methylpiperidin-3-yl]pyrazin-2-amine], for which the EC50 with HeLa cells (setting [1]) was not below 10000 nM. Moreover, at CHK1 (kinase domain), the “percent inhibition (where no Ki data is available)” value turned out to be 0%.

As to `COc1ccc2ncc(-c3cncc(N[C@@H]4CCNC4)n3)n2c1` [Example 55, 6-(6-Methoxyimidazo[1,2-a]pyridin-3-yl)-N-[(3R)-pyrrolidin-3-yl]pyrazin-2-amine], the EC50 in the experiment with HeLa cells (setting [1]) was 229 nM. This compound also came in with a Ki at CHK1 (kinase domain) of 23 nM.

For `Cc1cn2c(-c3cncc(N[C@@H]4CCCN[C@H]4C)n3)cnc2s1` [Example 176, 6-(2-methylimidazo[2,1-b][1,3]thiazol-5-yl)-N-[(2S,3R)-2-methylpiperidin-3-yl]pyrazin-2-amine], the EC50 with HeLa cells (setting [2]) was found to be 11.2 nM. This compound also registered a Ki at CHK1 (kinase domain) of 9.54 nM.

In the case of `C[C@@H]1NCCC[C@@H]1Nc1cncc(-c2cnc3ccccn23)n1` [Example 139, 6-imidazo[1,2-a]pyridin-3-yl-N-[(2S,3S)-2-methylpiperidin-3-yl]pyrazin-2-amine], the EC50 in the experiment on HeLa cells (setting [1]) was not below 10000 nM. On CHK1 (kinase domain), the Ki came out at 9.7 nM.

Consider `Clc1ccn2c(-c3cncc(N[C@@H]4CCCNC4)n3)cnc2c1` [Example 44, 6-(7-Chloroimidazo[1,2-a]pyridin-3-yl)-N-[(3R)-piperidin-3-yl]pyrazin-2-amine], for which the EC50 in the experiment with HeLa cells (setting [1]) came out at 21 nM. At CHK1 (kinase domain), this compound displayed a Ki of 2.51 nM.

As to `Cc1cn2c(-c3cncc(N[C@@H]4CC[C@@H](C)NC4)n3)cnc2s1` (relative stereo) [Example 61, Trans 6-(2-Methylimidazo[2,1-b][1,3]thiazol-5-yl)-N-(6-methylpiperidin-3-yl)pyrazin-2-amine], the concentration giving a half-maximal response (EC50) in the experiment with HeLa cells (setting [1]) worked out at 119 nM. At CHK1 (kinase domain), this compound had a Ki of 37.9 nM.

For the compound `Cc1cn2c(-c3cncc(N[C@@H]4CCCN[C@@H]4C)n3)cnc2s1` [Example 96, 6-(2-methylimidazo[2,1-b][1,3]thiazol-5-yl)-N-[(2R,3R)-2-methylpiperidin-3-yl]pyrazin-2-amine], in the experiment with HeLa cells (setting [1]), the EC50 was 24.3 nM. In addition, the affinity at CHK1 (kinase domain), expressed as Ki, was 2.7 nM.

Regarding `CCOc1ccc2ncn(-c3cncc(N[C@@H]4CCCNC4)n3)c2c1` [Example 149, 6-(6-ethoxy-1H-benzimidazol-1-yl)-N-[(3R)-piperidin-3-yl]pyrazin-2-amine], in the experiment on HeLa cells (setting [1]), the EC50 is not below 10000 nM. In addition, at CHK1 (kinase domain), the affinity, expressed as Ki, was 6.77 nM.

Regarding `CC(C)c1cn2c(-c3cncc(N[C@H]4CCCN[C@@H]4C)n3)cnc2s1` [Example 173, N-[(2R,3S)-2-methylpiperidin-3-yl]-6-[2-(propan-2-yl)imidazo[2,1-b][1,3]thiazol-5-yl]pyrazin-2-amine], the EC50 in the experiment with HeLa cells (setting [1]) is not below 10000 nM. For the same compound, the inhibitory constant (Ki) at CHK1 (kinase domain) amounted to 23.7 nM.

Turning to `CCc1ccn2c(-c3cncc(N[C@@H]4CCNC4)n3)cnc2c1` [Example 56, 6-(7-Ethylimidazo[1,2-a]pyridin-3-yl)-N-[(3R)-pyrrolidin-3-yl]pyrazin-2-amine], the EC50 in the experiment on HeLa cells (setting [1]) was found to be 126 nM. On CHK1 (kinase domain), this compound showed a Ki of 11.2 nM.

Consider `c1ccn2c(-c3cncc(N[C@@H]4CCNC4)n3)cnc2c1` [Example 10, 6-Imidazo[1,2-a]pyridin-3-yl-N-[(3R)-pyrrolidin-3-yl]pyrazin-2-amine], for which, in the experiment with HeLa cells (setting [1]), the EC50 was determined as 244 nM. This compound also displayed a Ki on CHK1 (kinase domain) of 23.6 nM.

Turning to `CCO[C@H]1CCNC[C@@H]1Nc1cncc(-c2cnc3ccccn23)n1` [Example 35, N-[(3S,4S)-4-ethoxypiperidin-3-yl]-6-(imidazo[1,2-a]pyridin-3-yl)pyrazin-2-amine], the EC50 in the experiment with HeLa cells (setting [1]) was found to be 40.9 nM. Moreover, the Ki at CHK1 (kinase domain) was found to be 3.88 nM.

For the compound `Clc1ccc2c(-c3cncc(N[C@@H]4CCCNC4)n3)cnn2c1` [Example 117, 6-(6-chloropyrazolo[1,5-a]pyridin-3-yl)-N-[(3R)-piperidin-3-yl]pyrazin-2-amine], the EC50 in the experiment with HeLa cells (setting [1]) is 32.9 nM. At CHK1 (kinase domain), this compound showed a Ki of 0.802 nM.

In the case of `C[C@@H]1CC[C@@H](Nc2cncc(-c3cnc4ccccn34)n2)CN1` [Example 31, 6-imidazo[1,2-a]pyridin-3-yl-N-[(3R,6R)-6-methylpiperidin-3-yl]pyrazin-2-amine], the EC50 with HeLa cells (setting [1]) turned out to be 183 nM. The same compound gave a Ki on CHK1 (kinase domain) of 27.3 nM.

As for `OCc1ccc2ncc(-c3cncc(N[C@@H]4CCCNC4)n3)n2c1` [Example 151, (3-{6-[(3R)-piperidin-3-ylamino]pyrazin-2-yl}imidazo[1,2-a]pyridin-6-yl)methanol], in the experiment with HeLa cells (setting [1]), the EC50 stood at 78.7 nM. The compound also gave a Ki on CHK1 (kinase domain) of 1.07 nM.

In the case of `FC(F)(F)c1ccc2ncc(-c3cncc(N[C@@H]4CCCNC4)n3)n2c1` [Example 39, N-[(3R)-piperidin-3-yl]-6-[6-(trifluoromethyl)imidazo[1,2-a]pyridin-3-yl]pyrazin-2-amine], the EC50 in the experiment on HeLa cells (setting [1]) is 677 nM. This compound also returned a Ki at CHK1 (kinase domain) of 17 nM.

Consider `COc1ccc2c(c1)ncn2-c1cncc(N[C@@H]2CCCNC2)n1` [Example 224, 6-(5-methoxy-1H-benzimidazol-1-yl)-N-[(3R)-piperidin-3-yl]pyrazin-2-amine], for which, in the experiment on HeLa cells (setting [1]), the EC50 was found to be 30.3 nM. Further, at CHK1 (kinase domain), the Ki was 2.39 nM.

For `Fc1ccc2c(-c3cncc(N[C@@H]4CCCNC4)n3)cnn2c1` [Example 198, 6-(6-fluoropyrazolo[1,5-a]pyridin-3-yl)-N-[(3R)-piperidin-3-yl]pyrazin-2-amine], in the experiment with HeLa cells (setting [1]), the EC50 stood at 23.4 nM. This compound also had a Ki at CHK1 (kinase domain) of 1.09 nM.

Consider `C[C@@H]1NCCC[C@H]1Nc1cncc(-c2cnc3ccccn23)n1` [Example 101, 6-imidazo[1,2-a]pyridin-3-yl-N-[(2S,3R)-2-methylpiperidin-3-yl]pyrazin-2-amine], for which the EC50 in the experiment with HeLa cells (setting [1]) was not below 10000 nM. Besides, affinity at CHK1 (kinase domain) was put at a Ki of 55.4 nM.

As for `CC(C)c1cn2c(-c3cncc(N[C@@H]4CCCN[C@H]4C)n3)cnc2s1` [Example 169, N-[(2S,3R)-2-methylpiperidin-3-yl]-6-[2-(propan-2-yl)imidazo[2,1-b][1,3]thiazol-5-yl]pyrazin-2-amine], the concentration giving a half-maximal response (EC50) in the experiment with HeLa cells (setting [2]) stood at 1850 nM. Further, the “percent inhibition (where no Ki data is available)” value at CHK1 (kinase domain) is reported as 45.9%^.

For `COc1ccn2c(-c3cncc(N[C@@H]4CCNC4)n3)cnc2c1` [Example 52, 6-(7-Methoxyimidazo[1,2-a]pyridin-3-yl)-N-[(3R)-pyrrolidin-3-yl]pyrazin-2-amine], the EC50 in the experiment with HeLa cells (setting [1]) was 72.9 nM. Moreover, on CHK1 (kinase domain), the Ki worked out at 9.55 nM.

With `CC(C)c1cn2c(-c3cncc(N[C@@H]4C[C@@H]5CN[C@H]4C5)n3)cnc2s1` [Example 127, (1S,4R,6R)-N-[6-(2-isopropylimidazo[2,1-b][1,3]thiazol-5-yl)pyrazin-2-yl]-2-azabicyclo[2.2.1]heptan-6-amine], in the experiment on HeLa cells (setting [1]), the EC50 worked out at 1060 nM. In addition, the inhibition constant Ki on CHK1 (kinase domain) was 8.91 nM.

As to `Cc1ncc(-c2cnc3ccccn23)nc1N[C@@H]1CCNC1` [Example 223, 6-(imidazo[1,2-a]pyridin-3-yl)-3-methyl-N-[(3R)-pyrrolidin-3-yl]pyrazin-2-amine], in the experiment with HeLa cells (setting [1]), the EC50 was found to be 329 nM. This compound showed a Ki on CHK1 (kinase domain) of 68.1 nM.

Take `C[C@H]1NCCC[C@@H]1Nc1cncc(-c2cnc3ccc(F)cn23)n1` [Example 172, 6-(6-fluoroimidazo[1,2-a]pyridin-3-yl)-N-[(2R,3S)-2-methylpiperidin-3-yl]pyrazin-2-amine]: the EC50 with HeLa cells (setting [1]) was not below 10000 nM. For the same compound, the Ki at CHK1 (kinase domain) turned out to be 178 nM.

In the case of `CCc1cn2c(-c3cncc(N[C@@H]4CCCNC4)n3)cnc2s1` [Example 107, 6-(2-ethylimidazo[2,1-b][1,3]thiazol-5-yl)-N-[(3R)-piperidin-3-yl]pyrazin-2-amine], the EC50 in the experiment on HeLa cells (setting [1]) is 31.6 nM. For the same compound, the affinity on CHK1 (kinase domain) corresponds to a Ki of 2.85 nM.

Take `CC1(Nc2cncc(-c3cnc4ccccn34)n2)CCCNC1` (centres unmarked) [Example 54, 6-Imidazo[1,2-a]pyridin-3-yl-N-(3-methylpiperidin-3-yl)pyrazin-2-amine]: in the experiment on HeLa cells (setting [1]), the concentration for a half-maximal effect (EC50) was 1110 nM. In addition, the affinity on CHK1 (kinase domain), expressed as Ki, was 118 nM.

On to `Cc1cn2c(-c3cncc(N[C@H]4CNC[C@H]4CF)n3)cnc2s1` [Example 183, N-[(3R,4R)-4-(fluoromethyl)pyrrolidin-3-yl]-6-(2-methylimidazo[2,1-b][1,3]thiazol-5-yl)pyrazin-2-amine], for which the EC50 with HeLa cells (setting [1]) is 53 nM. Moreover, at CHK1 (kinase domain), affinity was put at a Ki of 5.4 nM.

In turn, `c1ccc2c(c1)ncn2-c1cncc(N[C@@H]2CCCNC2)n1` [Example 1, 6-(1H-benzimidazol-1-yl)-N-[(3R)-piperidin-3-yl]pyrazin-2-amine] yielded an EC50 with HeLa cells (Homo sapiens, HeLa) of 70.3 nM. Also, the affinity on CHK1 (kinase domain) corresponds to a Ki of 13.2 nM.

For `F[C@H]1CNC[C@@H]1Nc1cncc(-c2cnn3ccccc23)n1` [Example 66, N-[(3S,4S)-4-fluoropyrrolidin-3-yl]-6-(pyrazolo[1,5-a]pyridin-3-yl)pyrazin-2-amine], in the experiment with HeLa cells (setting [1]), the EC50 was determined as 344 nM. In addition, the Ki at CHK1 (kinase domain) turned out to be 12.7 nM.

Turning to `C[C@@H]1CNC[C@@H]1Nc1cncc(-c2cnn3ccccc23)n1` [Example 119, N-[(3R,4R)-4-methylpyrrolidin-3-yl]-6-pyrazolo[1,5-a]pyridin-3-ylpyrazin-2-amine], the concentration for a half-maximal effect (EC50) in the experiment on HeLa cells (setting [1]) was found to be 26.7 nM. This compound also gave a Ki at CHK1 (kinase domain) of 5.38 nM.
